Activity data for 4 molecules are collected here from ChEMBL document CHEMBL5385948, “Glucose Uptake-Stimulating Metabolites from Aerial Parts of Centaurea sicula” (J Nat Prod, 2024).

The source made the active and inactive calls. The calls are words filed in the database; no cut-off is given here.

The subject of assay [1] is HEK293. Kind of assay: Induction of glucose uptake in HEK293 cells assessed as increase in 2-NBDG uptake at 3 uM incubated for 48 hrs followed by treated with 2-DG by fluorescence assay. It is filed as functional, cell-based. To be noted: Homo sapiens.
Assay [2] concerns HEK293. Kind of assay: Induction of glucose uptake in HEK293 cells assessed as increase in 2-NBDG uptake at 3 uM incubated for 48 hrs followed by treated with 2-DG in presence of EDTA by fluorescence assay. It is filed as functional, cell-based. Particulars: Homo sapiens.

Turning to `C/C1=C\CC/C(CO)=C/[C@@H](O)[C@H]2[C@H](C1)OC(=O)[C@H]2C`, in assay [1], the result was Active. Also, the outcome in assay [2] was inactive.
As for `COc1cc([C@@H]2OC[C@H]3C(=O)OC[C@H]32)ccc1O`, the outcome in assay [1] was Active. In assay [2], the outcome was inactive.
For the molecule `C=C(C(=O)O[C@H]1C/C(C)=C/CC/C(CO)=C/[C@H]2OC(=O)[C@@H](C)[C@H]12)[C@@H](O)CO`, the outcome in assay [1] and in assay [2] was Active.
In the case of `CC1(C)C(=O)O[C@]2(C)C=C1C[C@H](O)C2`, the result in assay [1] and in assay [2] was Active.
